Patent publication US20130225412A1, “SILICON NANOCARRIER FOR DELIVERY OF DRUG, PESTICIDES AND HERBICIDES , AND FOR WASTE WATER TREATMENT” (priority 2012, published 2013)

Experiment: Release from loaded diatomaceous earth measured by Nano Drop spectrophotometer
Assay type: physicochemical
Details: for start of release after loading / time of peak release: release pattern measured by NanoDrop
Procedure: According to embodiments herein, the diatom structure and drug loading capacity can vary for different kind of medicines. For example for anticancer Fluorouracil (5-FU or f5U) a master mix of 50 mg/ml was prepared. 0.8 ml of this master mix was added to 200 ml pure ethanol. 0.6 g diatomaceous earth (diatom cell wall) was added to this mixture and was left to be stirred for 3 hours with 200 rpm. Finally after filtration, diatom cell wall was washed once with methanol. 12 hours later at room temperature diatom cell wall were dried and loaded with Fluorouracil (5-FU or f5U).
Final concentration of 200 mg/ml of Gallic acid in Methanol/Diatomaceous Earth was prepared. To ensure that none of the Gallic acid was left on the outer surface of nano silicon, it washed by Methanol. After his, its release in water by interval of 2 hours was measured at the wavelength of 270 nm.
Evaluation of Benomyl fungicide release by nano Drop Spectrophotometer: Material and methods were identically same as Gallic Acid. After measuring all ODs, release calibration curve was drawn. […] With respect to FIG. 5, it is seen that the Benomyl releases after 12 hours of loading and gets to its peak release after 40 hours and the release decreases sharply. This is a kind of controlled release.
5-flouracil release pattern by nano Drop Spectrophotometer was evaluated. […] With respect to FIG. 6, it can be seen that the drug 5-Florouracil releases after 8 hours from the loading starts and 16 hours after gets peak release and then fall of gradually. This is a kind of controlled release.
Progesterone release pattern by nano Drop Spectrophotometer was evaluated.

optical density (ODs) measures (release in water, interval of 2 hours, wavelength 270 nm, loaded in Diatomaceous Earth)	start of release after loading	time of peak release	Compound	release in water (loaded in Diatomaceous Earth, washed by Methanol)
zero			O=C(O)c1cc(O)c(O)c(O)c1 [Gallic acid]	none of the Gallic acid has been released in water
	8 h	16 h	O=c1[nH]cc(F)c(=O)[nH]1 [fluorouracil]	
	4 h	28 h	CC(=O)[C@H]1CC[C@H]2[C@@H]3CCC4=CC(=O)CC[C@]4(C)[C@H]3CC[C@]12C [Progesterone]	

Compound	optical density (ODs) measures (release in water, interval of 2 hours, wavelength 270 nm, loaded in Diatomaceous Earth)	start of release after loading	time of peak release	release in water (loaded in Diatomaceous Earth, washed by Methanol)
CCCCNC(=O)n1c(NC(=O)OC)nc2ccccc21 [Benomyl]		12 h	40 h	
